Source: patent US6274715A, “Tricyclic erythromycin derivatives” (priority 1997, dated 2001)
Converted amounts (≈) assume the structure as drawn. Where two headings read alike, the source gives them in different places.

Experiments:
Format in all cases: cell-based
CANDIDA ALBICANS CCH 442 = assay: In vitro antibacterial activity, MIC, BHI agar dilution; conditions: C. albicans CCH 442, unit assumed
ESCHERICHIA COLI KNK 437 = conditions: E. coli KNK 437; BHI agar; unit assumed
[1] = test system: PSEUDOMONAS AERUGINOSA DPHD-5263; assay: In vitro antibacterial activity, MIC, BHI agar dilution; conditions: P. aeruginosa DPHD-5263, unit assumed
EN[…] ATCC 8043 = assay: as above; conditions: E. faecium ATCC 8043, unit assumed
Procedure: (§1) Representative compounds of the present invention were assayed in vitro for antibacterial activity as follows: Twelve petri dishes containing successive aqueous dilutions of the test compound mixed with 10 mL of sterilized Brain Heart Infusion (BHI) agar (Difco 0418-01-5) were prepared. Each plate was inoculated with 1:100 (or 1:10 for slow-growing strains, such as Micrococcus and Streptococcus) dilutions of up to 32 different microorganisms, using a Steers replicator block. The inoculated plates were incubated at 35-37° C. for 20 to 24 hours. In addition, a control plate, using BHI agar containing no test compound, was prepared and incubated at the beginning and end of each test.
(§2) An additional plate containing a compound having known susceptibility patterns for the organisms being tested and belonging to the same antibiotic class as the test compound was also prepared and incubated as a further control, as well as to provide test-to-test comparability. Erythromycin A was used for this purpose.
(§3) After incubation, each plate was visually inspected. The minimum inhibitory concentration (MIC) was defmed as the lowest concentration of drug yielding no growth, a slight haze, or sparsely isolated colonies on the inoculum spot as compared to the growth control.

M[…] ATCC 9341 = assay: as above; conditions: M. luteus ATCC 9341, unit assumed
Procedure: as §1, §2, §3

STR[…] 508 = assay: as above; conditions: S. agalactiae CMX 508, unit assumed
Procedure: as §1, §2, §3

ESCHERICHIA COLI JUHL = conditions: E. coli JUHL, BHI agar, unit assumed
[2] = test system: PSEUDOMONAS AERUGINOSA K799/61; assay: In vitro antibacterial activity, MIC, BHI agar dilution
[3] = test system: STAPHYLOCOCCUS AUREUS 1775; assay: as above; conditions: S. aureus 1775, unit assumed
[4] = test system: STREPTOCOCCUS BOVIS A-5169; assay: as above; conditions: S. bovis A-5169, unit assumed
[5] = test system: KLEBSIELLA PNEUMONIAE ATCC 8045; assay: as above; conditions: K. pneumoniae ATCC 8045, unit assumed
[6] = test system: STREPTOCOCCUS PYOGENES 930; assay: as above; conditions: S. pyogenes 930, unit assumed
[7] = test system: STAPHYLOCOCCUS AUREUS NCTC10649M; assay: as above; conditions: S. aureus NCTC10649M, unit assumed
[8] = test system: STAPHYLOCOCCUS AUREUS ATCC 6538P; assay: as above; conditions: S. aureus ATCC 6538P, 35-37° C., 20 to 24 hours, listed as Ex 35, unit assumed
[9] = test system: PSEUDOMONAS AERUGINOSA BMH10; assay: as above
[10] = test system: PSEUDOMONAS AERUGINOSA 5007; assay: as above; conditions: P. aeruginosa 5007, unit assumed
[11] = test system: MYCOBACTERIUM SMEGMATIS ATCC 114; assay: as above; conditions: M. smegmatis ATCC 114, unit assumed
PSEUDOMONAS CEPACIA 296I = assay: as above; conditions: P. cepacia 296I, unit assumed
[12] = test system: STAPHYLOCOCCUS AUREUS CMX 642A; assay: as above; conditions: S. aureus CMX 642A, unit assumed
ESCHERICHIA COLI H560 = assay: as above
[13] = test system: PSEUDOMONAS AERUGINOSA K799/WT; assay: as above; conditions: P. aeruginosa K799/WT
[14] = test system: PROVIDENCIA STUARTII CMX 640; conditions: P. stuartii CMX 640; BHI agar; unit assumed
[15] = test system: STAPHYLOCOCCUS AUREUS A-5278; assay: In vitro antibacterial activity, MIC, BHI agar dilution; conditions: S. aureus A-5278, unit assumed
[16] = test system: STAPHYLOCOCCUS EPIDERMIDIS 3519; conditions: S. epidermidis 3519, BHI agar, unit assumed
[17] = test system: PSEUDOMONAS AERUGINOSA DPHD-2862; assay: In vitro antibacterial activity, MIC, BHI agar dilution; conditions: P. aeruginosa DPHD-2862, unit assumed
[18] = test system: ENTEROBACTER AEROGENES ATCC 13048; assay: as above
[19] = test system: STREPTOCOCCUS PYOGENES PIU 2548; assay: as above
ESCHERICHIA COLI DC-2 = assay: as above; conditions: E. coli DC-2, unit assumed
M[…] ATCC 4698 = assay: as above; conditions: M. luteus ATCC 4698, unit assumed
Procedure: as §1, §2, §3

[20] = test system: STREPTOCOCCUS PYOGENES EES61; assay: as above; conditions: S. pyogenes EES61, unit assumed
[21] = test system: STAPHYLOCOCCUS AUREUS CMX 553; assay: as above; conditions: S. aureus CMX 553, unit assumed
ESCHERICHIA COLI SS = assay: as above; conditions: E. coli SS, unit assumed

Compound	MIC (CANDIDA ALBICANS CCH 442)	MIC (ESCHERICHIA COLI KNK 437)	MIC [1]	MIC (EN[…] ATCC 8043)	MIC (M[…] ATCC 9341)	MIC (STR[…] 508)	MIC [3]	MIC [4]	MIC [6]	MIC [7]	MIC [10]	MIC [11]	MIC (PSEUDOMONAS CEPACIA 296I)	MIC [12]	MIC [14]	MIC [15]	MIC [17]	further results
CCC1OC(=O)C(C)C(=O)C(C)C(OC2OC(C)CC(N(C)C)C2O)C(C)(OC)CC(C)C2=NCC(CCc3ccccc3)N3C(=O)OC1(C)C3C2C (stereo not drawn) [Example 35]	> 100 µg/mL	100 µg/mL (≈ 135 µM)	> 100 µg/mL	0.2 µg/mL (≈ 0.27 µM)	0.2 µg/mL (≈ 0.27 µM)	0.02 µg/mL (≈ 0.027 µM)	> 100 µg/mL	0.01 µg/mL (≈ 0.0135 µM)	50 µg/mL (≈ 67.4 µM)	0.78 µg/mL (≈ 1.05 µM)	> 100 µg/mL	0.39 µg/mL (≈ 0.526 µM)	100 µg/mL (≈ 135 µM)	0.78 µg/mL (≈ 1.05 µM)	> 100 µg/mL	> 100 µg/mL	> 100 µg/mL	MIC (ESCHERICHIA COLI JUHL; listed as Ex 35): > 100 µg/mL; MIC ([2]; P. aeruginosa K799/61, listed as Ex 35, unit assumed): 3.1 µg/mL (≈ 4.18 µM); MIC [5]: > 100 µg/mL; MIC [8]: 0.39 µg/mL (≈ 0.526 µM); MIC ([9]; P. aeruginosa BMH10, listed as Ex 35, unit assumed): > 100 µg/mL; MIC (ESCHERICHIA COLI H560; E. coli H560, listed as Ex 35, unit assumed): 50 µg/mL (≈ 67.4 µM); MIC ([13]; listed as Ex 35, unit assumed): > 100 µg/mL; MIC ([16]; listed as Ex 35): 0.39 µg/mL (≈ 0.526 µM); MIC ([18]; E. aerogenes ATCC 13048, listed as Ex 35, unit assumed): 100 µg/mL (≈ 135 µM); MIC ([19]; S. pyogenes PIU 2548, listed as Ex 35, unit assumed): 0.39 µg/mL (≈ 0.526 µM)
CC[C@H]1OC(=O)[C@H](C)C(=O)[C@H](C)[C@@H](O[C@@H]2O[C@H](C)C[C@H](N(C)C)[C@H]2O)[C@](C)(OC)C[C@@H](C)C2=NC3CN(CC)CC3N3C(=O)O[C@@]1(C)[C@H]3[C@H]2C (stereo partly drawn) [Example 115]	> 100 µg/mL	25 µg/mL (≈ 35.4 µM)	> 100 µg/mL	0.1 µg/mL (≈ 0.141 µM)	0.1 µg/mL (≈ 0.141 µM)	0.05 µg/mL (≈ 0.0707 µM)	> 100 µg/mL	≤ 0.005 µg/mL	> 100 µg/mL	0.78 µg/mL (≈ 1.1 µM)	> 100 µg/mL	12.5 µg/mL (≈ 17.7 µM)	> 100 µg/mL	1.56 µg/mL (≈ 2.21 µM)	> 100 µg/mL	> 100 µg/mL	> 100 µg/mL	MIC (ESCHERICHIA COLI DC-2): 50 µg/mL (≈ 70.7 µM); MIC (M[…] ATCC 4698): 0.39 µg/mL (≈ 0.552 µM); MIC (ESCHERICHIA COLI JUHL): > 100 µg/mL; MIC ([2]; P. aeruginosa K799/61, unit assumed): 0.78 µg/mL (≈ 1.1 µM); MIC ([9]; P. aeruginosa BMH10, unit assumed): > 100 µg/mL; MIC (ESCHERICHIA COLI H560; E. coli H560, unit assumed): 12.5 µg/mL (≈ 17.7 µM); MIC ([13]; unit assumed): > 100 µg/mL; MIC [16]: 1.56 µg/mL (≈ 2.21 µM); MIC [20]: 0.05 µg/mL (≈ 0.0707 µM); MIC [21]: 1.56 µg/mL (≈ 2.21 µM); MIC (ESCHERICHIA COLI SS): 0.39 µg/mL (≈ 0.552 µM); MIC ([18]; E. aerogenes ATCC 13048, unit assumed): 50 µg/mL (≈ 70.7 µM); MIC ([19]; S. pyogenes PIU 2548, unit assumed): 0.78 µg/mL (≈ 1.1 µM)
